Measurements as given in patent US20100305068A1, “COMPOUNDS AND METHODS FOR MODULATING PROTEIN TRAFFICKING” (priority 2006, published 2010).

system: pdr5 ypt1^ts cells; test: microbe, parasite or virus in culture; assay type: cell-based, yeast; conditions: Saccharomyces cerevisiae; Table 2; lowest concentration tested giving growth above the 0 μM background; 37° C.; read-out: ypt1-ts MRC (minimal rescue concentration)
In short: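 Whole-cell yeast growth-rescue screen: pdr5 ypt1^ts cells (efflux pump inactivated), growth-arrested at 37° C., cultured with compounds at 37° C. Restoration of growth read by optical density.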

Point of comparison: `CC(=O)O[C@@H]1C[C@@]2(C)[C@H](c3ccoc3)C[C@H]3O[C@]32[C@]2(C)C(=O)C(O)=C3C(C)(C)C(=O)C=C[C@]3(C)[C@@H]12` [ANTHOTHECOL], minimal effective concentration 3.13 µM. Against it:
- C=C1[C@H]2CC[C@@]3(C)[C@H](c4ccoc4)OC(=O)C[C@]13O[C@H]1C[C@@H](O)C(C)(C)[C@H](CC(=O)OC)[C@]12C [3alpha-HYDROXY-3- DEOXY[…] METHYL ESTER2] — the same, 3.13 µM
- CCC(=O)Nc1ccc(Cl)c(Cl)c1 [PROPANIL] — 4-fold higher, 12.5 µM
- C=C1C2CC[C@@]3(C)[C@H](c4ccoc4)OC(=O)C[C@]13O[C@H]1CC(=O)C(C)(C)C(CC(=O)OC)C21C (stereo partly shown) [[…], METHYL ESTER] — the same, 3.13 µM
- CCOc1ccc(C(=O)c2ccc(O)c(O)c2O)cc1 [2,3,4-TRIHYDROXY-4'- ETHOX[…]] — 4-fold higher, 12.5 µM

same assay, conditions: Table 2; 0.39 μM compound; 37° C.; background (0 μM) 0.058

Point of comparison: `CCC(=O)Nc1ccc(Cl)c(Cl)c1` [PROPANIL], “optical density, ypt1-ts, 0.39” value 0.084. Against it:
- C=C1[C@H]2CC[C@@]3(C)[C@H](c4ccoc4)OC(=O)C[C@]13O[C@H]1C[C@@H](O)C(C)(C)[C@H](CC(=O)OC)[C@]12C [3alpha-HYDROXY-3- DEOXY[…] METHYL ESTER2] — higher, 0.169
- CC(=O)O[C@@H]1C[C@@]2(C)[C@H](c3ccoc3)C[C@H]3O[C@]32[C@]2(C)C(=O)C(O)=C3C(C)(C)C(=O)C=C[C@]3(C)[C@@H]12 [ANTHOTHECOL] — higher, 0.161
- C=C1C2CC[C@@]3(C)[C@H](c4ccoc4)OC(=O)C[C@]13O[C@H]1CC(=O)C(C)(C)C(CC(=O)OC)C21C (stereo partly shown) [[…], METHYL ESTER] — higher, 0.119
- CCOc1ccc(C(=O)c2ccc(O)c(O)c2O)cc1 [2,3,4-TRIHYDROXY-4'- ETHOX[…]] — higher, 0.114

same assay, conditions: Table 2; 0.78 μM compound; 37° C.; background (0 μM) 0.058

Point of comparison: `C=C1C2CC[C@@]3(C)[C@H](c4ccoc4)OC(=O)C[C@]13O[C@H]1CC(=O)C(C)(C)C(CC(=O)OC)C21C` (stereo partly shown) [[…], METHYL ESTER], “optical density, ypt1-ts, 0.78” value 0.087. Against it:
- C=C1[C@H]2CC[C@@]3(C)[C@H](c4ccoc4)OC(=O)C[C@]13O[C@H]1C[C@@H](O)C(C)(C)[C@H](CC(=O)OC)[C@]12C [3alpha-HYDROXY-3- DEOXY[…] METHYL ESTER2] — lower, 0.078
- CCC(=O)Nc1ccc(Cl)c(Cl)c1 [PROPANIL] — lower, 0.072
- CC(=O)O[C@@H]1C[C@@]2(C)[C@H](c3ccoc3)C[C@H]3O[C@]32[C@]2(C)C(=O)C(O)=C3C(C)(C)C(=O)C=C[C@]3(C)[C@@H]12 [ANTHOTHECOL] — lower, 0.085
- CCOc1ccc(C(=O)c2ccc(O)c(O)c2O)cc1 [2,3,4-TRIHYDROXY-4'- ETHOX[…]] — lower, 0.074

same assay, conditions: Table 2; 1.56 μM compound; 37° C.; background (0 μM) 0.058

Point of comparison: `CC(=O)O[C@@H]1C[C@@]2(C)[C@H](c3ccoc3)C[C@H]3O[C@]32[C@]2(C)C(=O)C(O)=C3C(C)(C)C(=O)C=C[C@]3(C)[C@@H]12` [ANTHOTHECOL], “optical density, ypt1-ts, 1.56” value 0.12. Against it:
- C=C1[C@H]2CC[C@@]3(C)[C@H](c4ccoc4)OC(=O)C[C@]13O[C@H]1C[C@@H](O)C(C)(C)[C@H](CC(=O)OC)[C@]12C [3alpha-HYDROXY-3- DEOXY[…] METHYL ESTER2] — lower, 0.093
- CCC(=O)Nc1ccc(Cl)c(Cl)c1 [PROPANIL] — lower, 0.076
- C=C1C2CC[C@@]3(C)[C@H](c4ccoc4)OC(=O)C[C@]13O[C@H]1CC(=O)C(C)(C)C(CC(=O)OC)C21C (stereo partly shown) [[…], METHYL ESTER] — lower, 0.107
- CCOc1ccc(C(=O)c2ccc(O)c(O)c2O)cc1 [2,3,4-TRIHYDROXY-4'- ETHOX[…]] — lower, 0.081

same assay, conditions: Table 2; 3.13 μM compound; 37° C.; background (0 μM) 0.058

Point of comparison: `C=C1[C@H]2CC[C@@]3(C)[C@H](c4ccoc4)OC(=O)C[C@]13O[C@H]1C[C@@H](O)C(C)(C)[C@H](CC(=O)OC)[C@]12C` [3alpha-HYDROXY-3- DEOXY[…] METHYL ESTER2], “optical density, ypt1-ts, 3.13” value 0.144. Against it:
- CCC(=O)Nc1ccc(Cl)c(Cl)c1 [PROPANIL] — lower, 0.097
- CC(=O)O[C@@H]1C[C@@]2(C)[C@H](c3ccoc3)C[C@H]3O[C@]32[C@]2(C)C(=O)C(O)=C3C(C)(C)C(=O)C=C[C@]3(C)[C@@H]12 [ANTHOTHECOL] — higher, 0.262
- C=C1C2CC[C@@]3(C)[C@H](c4ccoc4)OC(=O)C[C@]13O[C@H]1CC(=O)C(C)(C)C(CC(=O)OC)C21C (stereo partly shown) [[…], METHYL ESTER] — higher, 0.21
- CCOc1ccc(C(=O)c2ccc(O)c(O)c2O)cc1 [2,3,4-TRIHYDROXY-4'- ETHOX[…]] — lower, 0.103

same assay, conditions: Table 2; 6.25 μM compound; 37° C.; background (0 μM) 0.058

Point of comparison: `CCOc1ccc(C(=O)c2ccc(O)c(O)c2O)cc1` [2,3,4-TRIHYDROXY-4'- ETHOX[…]], “optical density, ypt1-ts, 6.25” value 0.1. Against it:
- C=C1[C@H]2CC[C@@]3(C)[C@H](c4ccoc4)OC(=O)C[C@]13O[C@H]1C[C@@H](O)C(C)(C)[C@H](CC(=O)OC)[C@]12C [3alpha-HYDROXY-3- DEOXY[…] METHYL ESTER2] — higher, 0.381
- CCC(=O)Nc1ccc(Cl)c(Cl)c1 [PROPANIL] — higher, 0.108
- CC(=O)O[C@@H]1C[C@@]2(C)[C@H](c3ccoc3)C[C@H]3O[C@]32[C@]2(C)C(=O)C(O)=C3C(C)(C)C(=O)C=C[C@]3(C)[C@@H]12 [ANTHOTHECOL] — higher, 0.537
- C=C1C2CC[C@@]3(C)[C@H](c4ccoc4)OC(=O)C[C@]13O[C@H]1CC(=O)C(C)(C)C(CC(=O)OC)C21C (stereo partly shown) [[…], METHYL ESTER] — higher, 0.53

same assay, conditions: Table 2; 12.5 μM compound; 37° C.; background (0 μM) 0.058

Point of comparison: `CCC(=O)Nc1ccc(Cl)c(Cl)c1` [PROPANIL], “optical density, ypt1-ts, 12.5” value 0.217. Against it:
- C=C1[C@H]2CC[C@@]3(C)[C@H](c4ccoc4)OC(=O)C[C@]13O[C@H]1C[C@@H](O)C(C)(C)[C@H](CC(=O)OC)[C@]12C [3alpha-HYDROXY-3- DEOXY[…] METHYL ESTER2] — higher, 0.566
- CC(=O)O[C@@H]1C[C@@]2(C)[C@H](c3ccoc3)C[C@H]3O[C@]32[C@]2(C)C(=O)C(O)=C3C(C)(C)C(=O)C=C[C@]3(C)[C@@H]12 [ANTHOTHECOL] — higher, 0.581
- C=C1C2CC[C@@]3(C)[C@H](c4ccoc4)OC(=O)C[C@]13O[C@H]1CC(=O)C(C)(C)C(CC(=O)OC)C21C (stereo partly shown) [[…], METHYL ESTER] — higher, 0.56
- CCOc1ccc(C(=O)c2ccc(O)c(O)c2O)cc1 [2,3,4-TRIHYDROXY-4'- ETHOX[…]] — lower, 0.169

same assay, conditions: Table 2; 25 μM compound; 37° C.; background (0 μM) 0.058

Point of comparison: `CC(=O)O[C@@H]1C[C@@]2(C)[C@H](c3ccoc3)C[C@H]3O[C@]32[C@]2(C)C(=O)C(O)=C3C(C)(C)C(=O)C=C[C@]3(C)[C@@H]12` [ANTHOTHECOL], “optical density, ypt1-ts, 25” value 0.557. Against it:
- C=C1[C@H]2CC[C@@]3(C)[C@H](c4ccoc4)OC(=O)C[C@]13O[C@H]1C[C@@H](O)C(C)(C)[C@H](CC(=O)OC)[C@]12C [3alpha-HYDROXY-3- DEOXY[…] METHYL ESTER2] — higher, 0.611
- CCC(=O)Nc1ccc(Cl)c(Cl)c1 [PROPANIL] — higher, 0.564
- C=C1C2CC[C@@]3(C)[C@H](c4ccoc4)OC(=O)C[C@]13O[C@H]1CC(=O)C(C)(C)C(CC(=O)OC)C21C (stereo partly shown) [[…], METHYL ESTER] — higher, 0.577
- CCOc1ccc(C(=O)c2ccc(O)c(O)c2O)cc1 [2,3,4-TRIHYDROXY-4'- ETHOX[…]] — lower, 0.365
